The subject of one data set is HCT-116 tumor xenografts. Nature of the data set: HCT-116 colon carcinoma xenograft model. The format is in vivo, athymic (nu/nu) mice. The conditions noted are these: 75 mg/kg i.v. 1 time per week (positive control). How it is done:
Positive controls are carried out with 5-fluorouracil administered 1 time per week i.v.

For data set [1], the system named is MDA-MB-435 breast carcinoma. Nature of the data set: Anchorage Dependent Growth Monolayer Assay (ADGMA), MDA-MB-435. The following applies: 3-day exposure, MTS readout, read-out: IC50 (average±S.D.) MDA-MB-435. The format is cell-based, human. Here is the method: As indicated above, all of the compounds of formula I, and their corresponding pharmaceutically acceptable acid addition salts, are anti-tumor agents and are, therefore, useful in inhibiting the growth of various lymphomas, sarcomas, carcinomas, myelomas, and leukemia cell lines.
The ADGMA compares the number of viable cells following a 3-day exposure to a test compound relative to a number of cells present at the time the test compound was added. […] The absorbance at 490 nm (A490) of the formazan derivative is proportional to the number of viable cells. The IC50 for a test compound is the concentration of compound required to reduce the final cell number to 50% of the final control cell number. If cell proliferation is inhibited, the assay further defines compounds as cytostatic (cell number after 3-day compound incubation >cell number at time of compound addition) or cytotoxic (cell number after 3-day compound incubation <cell number at time of compound addition).
The MDA-MB-435 breast carcinoma line was obtained from the American Type Culture Collection (ATCC) and used between passages 4-20 following thawing. MDA-MB-435 breast carcinoma was maintained and plated in DME/F12 medium containing 10% fetal bovine serum, 15 mM HEPES (pH=7.4), 100 units/mL penicillin, and 100 μg/mL streptomycin.
Cell lines are trypsinized and counted using a Coulter counter to determine plating densities. Cells are then plated in their respective maintenance media (100 μL/well) in 96 well plates at the following densities: MDA-MB-435, 3,000 cells/well; A549 and HCT-116, 700 cells/well; are PC-3, 2500 cells/well. The number of cells plates as determined in preliminary experiments, results in cell densities of 75-90% of confluency by 4 days after plating. Initial cell densities, assayed one day after plating, are roughly 0.15-0.20 absorbance units greater than the media blank. Ninety-six well plates are seeded on day 0 and the test compounds are added on day 1. A control plate is created for each cell line that receives media only in row A and cells in row B. One day following plating, test compounds are added (in a final volume of 100 μL) to the test plates. Control plates receive 10 μL MTS mixture (prepared fresh on day of addition to cell plates at a ratio of 10 μL of a 0.92 mg/mL solution of PMS to a 190 μL of a 2 mg/mL solution of MTS) and 100 μL media. A490 of control plates is read 4 h after MTS addition to determine initial cell density values for each cell line. Three days after addition of test compound, 10 μL/well of MTS mixture is added to the test plates and A490 is read 4 h later. A490 values for wells containing cells are corrected for media absorbance, then normalized to initial density readings to determine percent net growth. IC50 values are determined from graphs of percent net growth as a function of compound concentration. Percent net growth is calculated as (Cell+Drug A490−Initial A490/Cell+Drug Vehicle A490−Initial A490).

Data set [2] concerns MDA-MB-435 tumor xenografts. The data set is described as follows: MDA-MB-435 breast carcinoma xenograft model. The format is in vivo, athymic (nu/nu) mice. Here is the method:
Positive controls are carried out with doxorubicin administered 3 times per week i.v.
The following results were obtained for compounds of Ex.1-Ex.12 tested against MDA-MB-435 tumor xenografts 3×/week for 3 weeks: […]

The subject of the next data set is A549 tumor xenografts. An excerpt: Utilizing this model, one can measure the ability of test compounds to inhibit the growth of human tumor xenografts growing subcutaneously (s.c.) in athymic nude mice. The histologic tumor types employed were MDA-MB-435 breast, A549 non-small cell lung, HCT-116 colon and PC-3 prostate carcinomas.
A549 non-small cell lung carcinoma xenograft model: Briefly, 10 million cells were implanted s.c. into the right flank of athymic (nu/nu) mice, and were allowed to grow until a mass of approximately 120 mm^3 was established. The test compounds are administered three times per week intravenously (i.v.) for three weeks in 5% dextrose, 10%DMSO in water. The test compounds are administered in dose-response fashion in order to evaluate and document the full potential range of activity (efficacy and toxicity) for a given compound. Positive controls are carried out with mitomycin C administered 3 times per week intraperitioneally (i.p.).
Toxicity was monitored by recording average group body weights twice weekly, and by daily observation of general health. Efficacy was monitored by taking measurements of tumor length, width, and depth weekly using digital calipers coupled to automated data collectors. Mean tumor volume (MTV) at initiation of therapy was subtracted from final MTV in order to express the actual tumor growth during treatment (ΔMTV). Anti-tumor activity was expressed as %T/C (ΔMTV of treated group÷ΔMTV of control group×100). Regressions were calculated using the formula: (T/T0−1)×100%, where T is the tumor volume for the treatment group at the end of the experiment, and T0 is the tumor volume at the beginning of the experiment. Statistical significance was evaluated using a one-tailed Student's t-test (p<0.05).

Another data set has as its system PC-3 tumor xenografts. The data set is described as follows: PC-3 prostate carcinoma xenograft model. The format is in vivo, athymic (nu/nu) mice. The following applies: 15 mg/kg i.v. daily for the first five days (positive control).
Where [3] appears, read: 10 μmol/kg i.v. 3×/week for 3 weeks.
Setting [4] is: 33 μmol/kg i.v. 3×/week for 3 weeks.
Setting [5] is: 2 mg/kg i.p. 3 times per week (positive control).

Structures are written as SMILES. Like-named read-outs stand apart in the source and are kept apart here. Marks after values point to notes of the source that are not given here.

In general, IC50 refers to the concentration that inhibits the measured activity by half.

With `O=c1[nH]cc(F)c(=O)[nH]1` [5-fluorouracil, reference compound], in the data set with HCT-116 tumor xenografts, the “% T/C” value is recorded as 16* %, the Dead/Total is 0/8 and the “Δ MTV” value is 65 mm^3.
Regarding `CO[C@@H](C(=O)N[C@H]1CC[C@@H](OC(=O)C2CCCCCC2)CNC1=O)[C@H](O)[C@@H](O)[C@H](O)/C=C/C(C)(C)C` [Ex. 3, (2R, 3R, 4S, 5R, 6E)-3,4,5-Trihydroxy-2-methoxy-8,8-dimethyl-N-[(3S, 6R)-hexahydro-2-oxo-6(cylohpetylcarbonyl)oxy-2H-azepin-3-yl]non-6-enamide], the IC50 in data set [1] came out at 32 ± 14 nM. Further, the “% T/C” value in data set [2] (setting [3]) was 39* %; in data set [2] (setting [4]), 28* %. The Dead/Total in data set [2] (setting [3]) and in data set [2] (setting [4]) was 0/8 throughout.
For `CO[C@@H](C(=O)N[C@H]1CC[C@@H](OC(=O)CC2CCCCC2)CNC1=O)[C@H](O)[C@@H](O)[C@H](O)/C=C/C(C)(C)C` [Ex. 6, (2R, 3R, 4S, 5R, 6E)-3,4,5-Trihydroxy-2-methoxy-8,8-dimethyl-N-[(3S, 6R)-hexahydro-2-oxo-6-(cyclohexylmethylcarbonyl)oxy-2H-azepin-3-yl]non-6-enamide], the “% T/C” value in data set [2] (setting [3]) was 47* %; in data set [2] (setting [4]) it was 34* %. For the same molecule, the Dead/Total in data set [2] (setting [3]) and in data set [2] (setting [4]) was 0/8 throughout.
Consider `CO[C@@H](C(=O)N[C@H]1CC[C@@H](OC(=O)Cc2ccccc2)CNC1=O)[C@H](O)[C@@H](O)[C@H](O)/C=C/C(C)(C)C` [Ex. 7, (2R, 3R, 4S, 5R, 6E)-3,4,5-Trihydroxy-2-methoxy-8,8-dimethyl-N-[(3S, 6R)-hexahydro-2-oxo-6-(1-oxo-2-phenylethoxy)-2H-azepin-3-yl]non-6-enamide.], for which the IC50 in data set [1] is 262 ± 70 nM. The “% T/C” value in data set [2] (setting [3]) is listed as 72%; in data set [2] (setting [4]), 43* %. In addition, the Dead/Total in data set [2] (setting [3]) and in data set [2] (setting [4]) was 0/8 each time.
Regarding `CO[C@@H](C(=O)N[C@H]1CC[C@@H](OC(=O)Cc2ccc(Cl)c(Cl)c2)CNC1=O)[C@H](O)[C@@H](O)[C@H](O)/C=C/C(C)(C)C` [Ex. 8, (2R, 3R, 4S, 5R, 6E)-3,4,5-Trihydroxy-2-methoxy-8,8-dimethyl-N-[(3S, 6R)-hexahydro-2-oxo-6-(1-oxo-2-[3,4-dichlorophenyl]ethoxy)-2H-azepin-3-yl]non-6-enamide], in data set [2] (setting [3]), the “% T/C” value is on record as 62% and the Dead/Total is reported as 0/8. Moreover, in data set [2] (setting [4]), the “% T/C” value turned out to be 67% and the Dead/Total is 0/8.
On to `COc1ccc(CC(=O)O[C@@H]2CC[C@H](NC(=O)[C@H](OC)[C@H](O)[C@@H](O)[C@H](O)/C=C/C(C)(C)C)C(=O)NC2)cc1` [Ex. 9, (2R, 3R, 4S, 5R, 6E)-3,4,5-Trihydroxy-2-methoxy-8,8-dimethyl-N-[(3S, 6R)-hexahydro-2-oxo-6-(1-oxo-2-[4-methoxyphenyl]ethoxy)-2H-azepin-3-yl]non-6-enamide], for which, in data set [2] (setting [3]), the “% T/C” value was determined as 76% and the Dead/Total is 0/8. Besides, in data set [2] (setting [4]), the “% T/C” value is 48* % and the Dead/Total is reported as 0/8.
For `CCCCCCCCCCOc1ccc(C(=O)O[C@@H]2CC[C@H](NC(=O)[C@H](OC)[C@H](O)[C@@H](O)[C@H](O)/C=C/C(C)(C)C)C(=O)NC2)cc1` [Ex. 10, (2R, 3R, 4S, 5R, 6E)-3,4,5-Trihydroxy-2-methoxy-8,8-dimethyl-N-[(3S, 6R)-hexahydro-2-oxo-6-([4-n-decyloxyphenyl]carbonyl)oxy-2H-azepin-3-yl]non-6-enamide], the IC50 in data set [1] (Homo sapiens, MDA-MB-435, 72 h) turned out to be 6 ± 4 nM. For the same molecule, in data set [2] (setting [3]), the “% T/C” value was 64* % and the Dead/Total was 0/8. Further, in data set [2] (setting [4]), the “% T/C” value is reported as 2* %, the Dead/Total is on record as 0/8 and the “Δ MTV” value worked out at 4 mm^3.
Regarding `CO[C@@H](C(=O)N[C@H]1CC[C@@H](OC(=O)/C=C/c2ccccc2)CNC1=O)[C@H](O)[C@@H](O)[C@H](O)/C=C/C(C)(C)C` [Ex. 11, (2R, 3R, 4S, 5R, 6E)-3,4,5-Trihydroxy-2-methoxy-8,8-dimethyl-N-[(3S, 6R)-hexahydro-2-oxo-6-(1-oxo-3-phenyl-2-propenoxy)-2H-azepin-3-yl]non-6-enamide], in data set [2] (setting [3]), the Dead/Total is on record as 0/8 and the “Δ MTV” value came out at 135 mm^3. Further, in data set [2] (setting [4]), the Dead/Total is on record as 0/8 and the “Δ MTV” value is reported as 76 mm^3.
For `CCCCCCCCCCc1ccc(C(=O)O[C@@H]2CC[C@H](NC(=O)[C@H](OC)[C@H](O)[C@@H](O)[C@H](O)/C=C/C(C)(C)C)C(=O)NC2)cc1` [Ex. 12, (2R, 3R, 4S, 5R, 6E)-3,4,5-Trihydroxy-2-methoxy-8,8-dimethyl-N-[(3S, 6R)-hexahydro-2-oxo-6-([4-n-decylphenyl]carbonyl)oxy-2H-azepin-3-yl]non-6-enamide], the IC50 in data set [1] (Homo sapiens, MDA-MB-435, 72 h) is 27 ± 37 nM. In addition, in data set [2] (setting [3]), the “% T/C” value was 52% and the Dead/Total is 0/8. Moreover, in data set [2] (setting [4]), the “% T/C” value is listed as 7* % and the Dead/Total was 0/8.
For the molecule `CO[C@@H](C(=O)N[C@H]1CC[C@@H](OC(=O)Cc2c[nH]c3ccccc23)CNC1=O)[C@H](O)[C@@H](O)[C@H](O)/C=C/C(C)(C)C` [Ex. 14, (2R, 3R, 4S, 5R, 6E)-3,4,5-Trihydroxy-2-methoxy-8,8-dimethyl-N-[(3S, 6R)-hexahydro-2-oxo-6-(1-oxo-3-[3-indolyl]ethoxy)-2H-azepin-3-yl]non-6-enamide], in data set [1], the IC50 worked out at 1240 ± 196 nM.
For `CO[C@@]12[C@H](COC(N)=O)C3=C(C(=O)C(C)=C(N)C3=O)N1C[C@@H]1N[C@@H]12` [Mitomycin C, reference compound], in the data set on A549 tumor xenografts (setting [5]), the “% T/C” value is recorded as 20* % and the “Δ MTV” value came out at 15 mm^3. Besides, in the data set with A549 tumor xenografts (mouse, in vivo), the Dead/Total is 0/8.
With `CC(=O)O[C@H]1C(=O)[C@@]2(C)[C@H]([C@H](OC(=O)c3ccccc3)[C@]3(O)C[C@H](OC(=O)[C@H](O)[C@@H](NC(=O)c4ccccc4)c4ccccc4)C(C)=C1C3(C)C)[C@]1(OC(C)=O)CO[C@@H]1C[C@@H]2O` [Paclitaxel, reference compound], in the data set with PC-3 tumor xenografts, the “% regression” value worked out at 100 regression* %, the Dead/Total is on record as 3/8 and the “Δ MTV” value is −103 mm^3.

The values above are taken from patent US6555533B2, “Use of certain substituted caprolactams in treating tumors” (Novartis AG, priority 1998, dated 2003).
